Source: ChEMBL document CHEMBL1201862, “PubChem BioAssay data set” (2004)
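Cultured in 96-well plates, cells were exposed to test compound for 48 hours across five concentrations. GI50 is the concentration that inhibits growth by half.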 Activity calls are given as the source filed them. Cut-off read from the data, not from the text of the source: active = GI50 up to about 1.1 µM and inactive = higher.

Tests used:
Experiment in all cases: inhibition of tumour cell growth, NCI panel, 48 h
[1] = system: ACHN
[2] = system: CCRF-CEM
[3] = system: HT-29
[4] = system: K562
[5] = system: KM12
[6] = system: LOX IMVI
[7] = system: M14
[8] = system: MCF7
[9] = system: NCI-H460
[10] = system: OVCAR-3
[11] = system: OVCAR-8
[12] = system: PC-3
[13] = system: RXF 393
[14] = system: SF-268
[15] = system: SK-MEL-2
[16] = system: SNB-19
[17] = system: SR
[18] = system: SW-620
[19] = system: UO-31
[20] = system: OVCAR-4

Measured: GI50

COc1ccc2c(c1)CCc1cc(OC)ccc1/[N+]([O-])=[N+]\2[O-]
inactive: [1] 10.8 µM | [2] 1.92 µM | [3] 19.6 µM | [4] 8.91 µM | [5] 20.2 µM | [6] 15 µM | [7] 23 µM | [8] 9.29 µM | [9] 19.1 µM | [10] 16.6 µM | [11] 10.4 µM | [12] 14.8 µM | [13] 2.86 µM | [14] 16.7 µM | [15] 20.9 µM | [16] 21.6 µM | [17] 3.28 µM | [18] 7.1 µM | [19] 9.08 µM

Cc1ccc(C2=Nc3c(N)nc(N)nc3NC(c3ccccc3)C2)cc1 (stereo not given)
inactive: [1] 15.1 µM | [2] 7.41 µM | [3] 3.99 µM | [4] 4.06 µM | [6] 11 µM | [7] 8.26 µM | [8] 7.69 µM | [9] 12.4 µM | [10] 11.8 µM | [20] 13.9 µM | [11] 14 µM | [12] 10.5 µM | [13] 9.4 µM | [14] 14.9 µM | [16] 13.4 µM | [17] 6.92 µM | [18] 4.16 µM | [19] 12.6 µM

O=C(NNc1nc(-c2ccccc2)cs1)C(F)(F)F
inactive: [1] 29.2 µM | [2] 24.9 µM | [3] 47.2 µM | [4] 25 µM | [5] 30.1 µM | [6] 57.7 µM | [7] 57.1 µM | [8] > 100 µM | [9] 63.5 µM | [20] > 100 µM | [11] 33.4 µM | [12] 37.8 µM | [13] 75 µM | [14] 29.6 µM | [15] 36.3 µM | [16] 63.8 µM | [17] 33.4 µM | [18] 34.4 µM | [19] 3.3 µM

CC1(C)N=c2c(ncn2N)=C(C(N)=O)N1
inactive: [1] > 100 µM | [2] > 100 µM | [3] > 100 µM | [4] > 100 µM | [5] > 100 µM | [6] > 100 µM | [7] > 100 µM | [8] > 100 µM | [9] > 100 µM | [10] > 100 µM | [20] > 100 µM | [11] > 100 µM | [12] > 100 µM | [13] > 100 µM | [14] > 100 µM | [16] > 100 µM | [17] > 100 µM | [18] > 100 µM

Cc1nc(C)c(N2CCN(C#N)CC2)c(O)n1
inactive: [1] > 100 µM | [2] > 100 µM | [3] > 100 µM | [4] > 100 µM | [5] > 100 µM | [6] > 100 µM | [7] > 100 µM | [8] > 100 µM | [9] > 100 µM | [10] > 100 µM | [20] > 100 µM | [11] 93.3 µM | [12] > 100 µM | [13] > 100 µM | [14] > 100 µM | [16] > 100 µM | [17] > 100 µM | [18] > 100 µM | [19] > 100 µM

O=C1CSC(c2cccc(Cl)c2)N1c1ccc(-c2ccc(-n3c(-c4ccccc4)nc4ccccc4c3=O)cc2)cc1 (stereo not given)
inactive: [1] 45.8 µM | [2] 29.9 µM | [3] 38.9 µM | [4] 35.6 µM | [5] 22.3 µM | [6] 35.1 µM | [7] 53.6 µM | [8] 30.8 µM | [9] 32.9 µM | [10] 36 µM | [20] 35.1 µM | [11] 46.1 µM | [12] 29.8 µM | [14] 54.1 µM | [15] 25.2 µM | [16] > 100 µM | [17] 18.9 µM | [18] > 100 µM | [19] 21.6 µM

O=C1CCC2(c3ccc(F)cc3)Nc3ncncc3N12 (stereo not given)
inactive: [1] > 10 µM | [2] > 10 µM | [3] > 10 µM | [4] > 10 µM | [5] > 10 µM | [6] > 10 µM | [7] > 10 µM | [8] 2.32 µM | [9] > 10 µM | [10] > 10 µM | [20] > 10 µM | [11] > 10 µM | [12] > 10 µM | [14] > 10 µM | [15] > 10 µM | [16] > 10 µM | [17] > 10 µM | [18] > 10 µM | [19] > 10 µM

Cc1cc(S(=O)(=O)n2ccnc2Oc2ccccc2)c(SSc2cc(Cl)c(C)cc2S(=O)(=O)n2ccnc2Oc2ccccc2)cc1Cl
inactive: [3] > 100 µM | [4] > 100 µM | [5] > 100 µM | [6] > 100 µM | [7] > 100 µM | [8] > 100 µM | [9] > 100 µM | [10] > 100 µM | [20] 35.3 µM | [11] > 100 µM | [12] > 100 µM | [13] > 100 µM | [14] 59.6 µM | [15] > 100 µM | [16] > 100 µM | [17] 44 µM | [18] > 100 µM | [19] > 100 µM

COC(O)C(=O)c1ccc2c(c1)CC1(C2)Cc2cc3c(cc2C1=O)CCC3 (stereo not given)
inactive: [1] 17 µM | [2] 11.9 µM | [3] 20.1 µM | [4] 2.94 µM | [5] 20.9 µM | [6] 2.69 µM | [7] 19.3 µM | [8] 17.3 µM | [9] 27.9 µM | [10] 18.9 µM | [20] 16.1 µM | [11] > 10 µM | [12] 14.9 µM | [14] 19.4 µM | [15] 23.2 µM | [16] 18.2 µM | [17] > 10 µM | [18] 14.5 µM | [19] 16.9 µM

COC(=O)c1c(OC(C)=O)ccc2c1c1c(n2Cc2ccccc2)C(=O)c2ccccc2C1=O
inactive: [1] 30.1 µM | [2] 36.3 µM | [3] 16.9 µM | [4] 25.7 µM | [5] 20.5 µM | [7] 22 µM | [8] 33.9 µM | [9] 30.1 µM | [10] 17.6 µM | [20] 21.8 µM | [11] 27.7 µM | [12] 22.4 µM | [13] 18.8 µM | [14] 26.5 µM | [15] 18.7 µM | [16] 35.3 µM | [17] 24.9 µM | [19] 37.2 µM

CCc1cc2c(cc1O)CC[C@@H]1[C@@H]2CC[C@]2(C)[C@@H](O)CC[C@@H]12
inactive: [1] 8.81 µM | [2] 5.6 µM | [3] 15 µM | [4] 3.88 µM | [5] 6.19 µM | [6] 9.75 µM | [7] 6.49 µM | [8] 3.63 µM | [9] 5.42 µM | [20] 12.3 µM | [11] 7.24 µM | [12] 12.2 µM | [13] 3.76 µM | [14] 6.41 µM | [15] 9.82 µM | [16] 6.34 µM | [17] 3.08 µM | [18] 4.16 µM | [19] 9.08 µM
